According to patent publication US11999746B2, “Compounds” (GlaxoSmithKline Intellectual Property Development Limited, priority 2014, dated 2024):
Structures can show the parent of a compound that is named as a salt.

Tests used:
Format in all cases: biochemical
[1] = target: T1, recombinant human Lp-PLA2 (Homo sapiens, UniProt Q13093); experiment: (1b) hrThioPAF assay, recombinant human Lp-PLA2; conditions: Examples 266-412 were tested here, one experiment or average of multiple experiments, read-out: rhLp-PLA2 (pIC50) (converted)
T1 sequence (Q13093 22-441): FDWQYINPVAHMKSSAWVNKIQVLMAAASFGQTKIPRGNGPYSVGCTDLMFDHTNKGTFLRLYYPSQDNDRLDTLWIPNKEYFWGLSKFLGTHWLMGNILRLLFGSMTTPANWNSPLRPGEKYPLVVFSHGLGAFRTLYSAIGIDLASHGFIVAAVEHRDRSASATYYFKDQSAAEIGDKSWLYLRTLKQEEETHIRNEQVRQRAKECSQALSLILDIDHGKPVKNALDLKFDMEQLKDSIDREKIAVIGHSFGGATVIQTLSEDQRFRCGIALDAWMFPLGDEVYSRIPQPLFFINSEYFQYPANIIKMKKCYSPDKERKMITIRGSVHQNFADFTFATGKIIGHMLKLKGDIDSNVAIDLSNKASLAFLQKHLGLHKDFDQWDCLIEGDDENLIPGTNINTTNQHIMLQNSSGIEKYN
Source text: 1-O-Hexadecyl-2-deoxy-2-thio-S-acetyl-sn-glyceryl-3-phosphorylcholine (2-thio-PAF) is a substrate for PAF-hydrolases (PAF-AH) commercially available from Cayman Chemical. Upon cleavage with PAF-AH, the free thiol is released at the sn-2 position and can then react with 7-diethylamino-3-(4′-maleimidylphenyl)-4-methylcoumarin (CPM) a thiol-reactive coumarin. This reaction (Michael addition) results in an increase in fluorescence. Inhibitors of Lp-PLA2 therefore prevent this cleavage and no fluorescent increase is observed.
The Thio-PAF assay was run as an unquenched 20 μL assay. The source plate containing the compounds to be tested was prepared by making 1:3 (by volume) serial dilution of the compounds within DMSO on 384-well microplate. Then, 5 μL of the compounds on compound source plate were transferred into 384 well Greiner 784076 (black) plates using STAR+(Hamilton) liquid dispenser. 10 μL of recombinant human Lp-PLA2 enzyme (20 pM rhLp-PLA2 in assay buffer of 50 mM HEPES, pH 7.4, 150 mM NaCl, 1 mM CHAPS) was added to each well of the plate. 5 μL of substrate comprising 40 μM 2-thio-PAF [from ethanol stock], 40 μM CPM [from a DMSO stock] and 400 μM NEM (N-ethylmaleimide) [made fresh daily in DMSO] in assay buffer (50 mM HEPES, pH 7.4, 150 mM NaCl, 1 mM CHAPS) was added to 384 well Greiner 784076 black plates. Plates were vortexed for 10 sec. The plate was covered to protect it from light and incubated for 20 min at 25° C. The plates were read for fluorescence intensity at ex: 380 nm/em: 485 nm using Envision plate reader (Perkin Elmer). Raw data were transferred to Excel software and pIC50 data, curve and QC analysis was conducted by using XL fit module in Excel.

[2] = target: T1, recombinant human Lp-PLA2; experiment: (1a) PED6 assay, recombinant human Lp-PLA2 (rhLp-PLA2); conditions: Examples 1-167 and 413-430 were tested here, one experiment or average of multiple experiments, read-out: rhLp-PLA2 (pIC50) (converted)
Method in brief: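 PED6 (2 μM final after 1:1 addition of 4 μM stock) cleavage by rhLp-PLA2 (4 nM working solution) in 50 mM HEPES pH 7.4, 150 mM NaCl, 1 mM CHAPS; compounds preincubated with enzyme 30 minutes, reaction 20 min at room temperature. Fluorescence at ex 480/em 540; pIC50 from curve fit.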

[3] = target: T2, Lp-PLA2 in human plasma (Homo sapiens, UniProt Q13093); experiment: (3a) Lp-PLA2 human plasma Thio-PAF assay; conditions: (3a) Thio-PAF assay, pooled human plasma; Examples 1-265 and 413-430 were tested here; read-out: pIC50 in the Lp-PLA2 human plasma assay (converted)
T2 construct: from tissue; host or cells: pooled human plasma
T2 sequence (Q13093 22-441): T1 sequence (Q13093 22-441)
Method in brief: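 Endogenous Lp-PLA2 activity in frozen pooled human plasma measured as thiol release from 2-thio-PAF, detected by CPM fluorescence (ex 380/em 485). Compound preincubation 30 min; 2-min reaction in HEPES pH 7.4 buffer with NEM, stopped with 5% TFA, read 40 min later at room temperature; values as pIC50.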

SMILES	IC50 [1]	IC50 [2]	IC50 [3]
N#Cc1cc(CNc2cc3n(c(=O)n2)CC2CNCCN32)ccc1F (stereo not drawn) [Example E319, 2-Fluoro-5-(((9-oxo-2,3,4,9,11,11a-hexahydro-1H-pyrazino[1′,2′:3,4]imidazo[1,2-c]pyrimidin-7-yl)amino)methyl)benzonitrile hydrochloride]	≤ 10000 nM	–	–
CS(=O)(=O)N1CCN2c3cc(NCc4ccc(F)c(F)c4)nc(=O)n3CC2C1 (stereo not drawn) [Example E309, 7-((3,4-Difluorobenzyl)amino)-2-(methylsulfonyl)-3,4,11,11a-tetrahydro-1H-pyrazino[1′,2′:3,4]imidazo[1,2-c]pyrimidin-9(2H)-one]	≤ 10000 nM	–	–
CS(=O)(=O)N1CCN2c3cc(NCc4cccc(F)c4F)nc(=O)n3CC2C1 (stereo not drawn) [Example E311, 7-((2,3-Difluorobenzyl)amino)-2-(methylsulfonyl)-3,4,11,11a-tetrahydro-1H-pyrazino[1′,2′:3,4]imidazo[1,2-c]pyrimidin-9(2H)-one]	≤ 10000 nM	–	–
O=c1nc(OCc2cccc(F)c2F)cc2n1C[C@@H]1COCCN21 [Example E131, (R)-7-((2,3-difluorobenzyl)oxy)-3,4,11,11a-tetrahydropyrimido[6′,1′:2,3]imidazo[5,1-c][1,4] oxazin-9(1H)-one]	–	≤ 100 nM	≤ 100 nM
O=c1nc(OCc2cc(F)c(Oc3ccnc(C(F)(F)F)c3)c(F)c2)cc2n1C[C@@H]1COCCN21 [Example E119, (R)-7-((3,5-difluoro-4-((2-(trifluoromethyl)pyridin-4-yl)oxy)benzyl)oxy)-3,4, 11, 11a-tetra hydropyrimido[6′,1′:2,3]imidazo[5,1-c][1,4]oxazin-9(1H)-one]	–	≤ 1 nM	≤ 100 nM
O=c1nc(OCc2cccc(F)c2F)cc2n1C[C@H]1COCCN21 [Example E127, (S)-7-((2,3-difluorobenzyl)oxy)-3,4,11,11a-tetrahydropyrimido[6′,1′:2,3]imidazo[5,1-c][1,4] oxazin-9(1H)-one]	–	≤ 100 nM	≤ 100 nM
CN1CCN2c3cc(OCc4cc(F)c(Oc5cnn(C)c5)c(F)c4)nc(=O)n3CC2C1 (stereo not drawn) [Example E167, 7-((3,5-Difluoro-4-((1-methyl-1H-pyrazol-4-yl)oxy)benzyl)oxy)-2-methyl-3,4,11,11a-tetrahydro-1H-pyrazino[1,2′:3,4]imidazo[1,2-c]pyrimidin-9(2H)-one]	–	≤ 100 nM	≤ 10000 nM
O=c1nc(OCc2ccc(F)cc2F)cc2n1C[C@H]1CCCCN21 [Example E55, (R)-3-((2,4-Difluorobenzyl)oxy)-6,7,8,9,9a,10-hexahydro-1H-pyrido[1′,2′:3,4]imidazo[1,2-c] pyrimidin-1-one]	–	≤ 100 nM	≤ 10000 nM
Cc1ccc(Oc2c(F)cc(COc3cc4n(c(=O)n3)C[C@H]3COCN43)cc2F)cn1 [Example E149, (S)-6-((3,5-difluoro-4-((6-methylpyridin-3-yl)oxy)benzyl)oxy)-10,10a-dihydro-1H-oxazolo[3′,4′:3,4]imidazo[1,2-c]pyrimidin-8(3H)-one]	–	≤ 1 nM	≤ 100 nM
CN1c2cc(OCc3cccc(F)c3)nc(=O)n2CC12CCCC2 [Example 418]	–	≤ 100 nM	≤ 100 nM
O=c1nc(OCc2cc(F)c(Oc3ccnc(C(F)(F)F)c3)c(F)c2)cc2n1CC1OCCN21 (single isomer, unassigned) [Example E164, 6-((3,5-difluoro-4-((2-(trifluoromethyl)pyridin-4-yl)oxy)benzyl)oxy)-10,10a-dihydro-2H-oxazolo[3′,2′:3,4]imidazo[1,2-c]pyrimidin-8(3H)-one]	–	≤ 1 nM	≤ 100 nM
O=c1nc(OCc2cc(F)c(OC3(CCF)CC3)c(F)c2)cc2n1C[C@@H]1CCOCN21 [Example E140, (S)-3-((3,5-difluoro-4-(1-(2-fluoroethyl)cyclopropoxy)benzyl)oxy)-8,9,9a,10-tetrahydropyrimido[6′,1′:2,3]imidazo[1,5-c][1,3]oxazin-1(6H)-one]	–	≤ 100 nM	≤ 10000 nM
N#Cc1cccc(COc2cc3n(c(=O)n2)CC2CCCCN32)c1 (stereo not drawn) [Example E6, 3-(((1-Oxo-6,7,8,9,9a,10-hexahydro-1H-pyrido[1′,2′:3,4]imidazo[1,2-c]pyrimidin-3-yl)oxy)methyl)benzonitrile]	–	≤ 100 nM	≤ 10000 nM

Other lines, results leading:

IC50 [1]	IC50 [2]	IC50 [3]	SMILES
–	≤ 1 nM	≤ 100 nM	O=c1nc(OCc2ccc(Oc3ccnc(C(F)(F)F)c3)c(F)c2)cc2n1CC1CCCCN21 (stereo not drawn) [Example E17, 3-((3-Fluoro-4-((2-(trifluoromethyl)pyridin-4-yl)oxy)benzyl)oxy)-6,7,8,9,9a,10-hexahydro-1H-pyrido[1′,2′:3,4]imidazo[1,2-c]pyrimidin-1-one]
–	≤ 1 nM	≤ 100 nM	O=c1nc(OCc2cc(F)c(Oc3ccc(C(F)(F)F)nc3)c(F)c2)cc2n1C[C@H]1CCCN21 [Example E79, (R)-3-((3,5-difluoro-4-((6-(trifluoromethyl)pyridin-3-yl)oxy)benzyl)oxy)-7,8,8a,9-tetrahydro pyrrolo[1′,2′:3,4]imidazo[1,2-c]pyrimidin-1(6H)-one]
–	≤ 1 nM	≤ 100 nM	N#Cc1cc(COc2cc3n(c(=O)n2)CC2CCCCN32)ccc1Oc1ccc(F)c(F)c1 (stereo not drawn) [Example E19, 2-(3,4-Difluorophenoxy)-5-(((1-oxo-6,7,8,9,9a,10-hexahydro-1H-pyrido[1′,2′:3,4]imidazo-[1,2-c]pyrimidin-3-yl)oxy)methyl)benzonitrile]
–	≤ 1 nM	≤ 100 nM	O=c1nc(OCc2cc(F)c(Oc3ccnc(C(F)(F)F)c3)c(F)c2)cc2n1CC1CCCN21 (stereo not drawn) [Example E75, 3-((3,5-difluoro-4-((2-(trifluoromethyl)pyridin-4-yl)oxy)benzyl)oxy)-7,8,8a, 9-tetrahydro pyrrolo[1′, 2′:3, 4]imidazo[1,2-c]pyrimidin-1(6H)-one]
–	≤ 1 nM	≤ 100 nM	O=c1nc(OCc2cc(F)c(Oc3cccc(C(F)(F)F)c3)c(F)c2)cc2n1CC1CCCN21 (stereo not drawn) [Example E81, 3-((3,5-difluoro-4-(3-(trifluoromethyl)phenoxy)benzyl)oxy)-7,8,8a,9-tetrahydropyrrolo[1′,2′:3, 4]imidazo[1,2-c]pyrimidin-1(6H)-one]
–	≤ 100 nM	≤ 10000 nM	O=c1nc(OCc2ccc(F)c(F)c2)cc2n1C[C@@H]1CCCCN21 [Example E31, (S)-3-((3,4-Difluorobenzyl)oxy)-6,7,8,9,9a,10-hexahydro-1H-pyrido[1′,2′:3,4]imidazo[1,2-c]pyrimidin-1-one]
–	≤ 100 nM	≤ 10000 nM	O=c1nc(OCc2ccc(Oc3cnc(C(F)(F)F)nc3)c(F)c2)cc2n1C[C@@H]1CCCN21 [Example E72, (S)-3-((3-fluoro-4-((2-(trifluoromethyl)pyrimidin-5-yl)oxy)benzyl)oxy)-7,8,8a, 9-tetra hydropyrrolo[1′,2′:3,4]imidazo[1,2-c]pyrimidin-1(6H)-one]
–	≤ 100 nM	≤ 10000 nM	O=c1nc(OCc2cc(F)c(Oc3ccc(C(F)(F)F)nc3)c(F)c2)cc2n1C[C@@H]1CCCN21 [Example E80, (S)-3-((3,5-difluoro-4-((6-(trifluoromethyl)pyridin-3-yl)oxy)benzyl)oxy)-7,8,8a,9-tetrahydro pyrrolo[1′,2′:3,4]imidazo[1,2-c]pyrimidin-1(6H)-one]
